From patent US8569267B2, “Tetracyclic tetrahydrofuran derivatives containing cyclic amine side chain” (Janssen Pharmaceutica, NV, priority 2005, dated 2013)

How the values were obtained:
[1] = molecular target: T1, human Dopamine D2L receptor (Homo sapiens, UniProt P14416); experiment: In vitro binding affinity for human D2L receptor ([3H]Spiperone binding); conditions: human D2L receptor-transfected CHO cell membranes, read-out: D2L pIC50 (converted)
T1 construct: expressed in transfected cells; host or cells: CHO cells
Procedure, shortened: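 Membranes from CHO cells transfected with the receptor were incubated with [3H]Spiperone (diluted to 2 nmol/L before addition) and compound for 30 min at 37° C. Buffer was Tris-HCl, pH 7.7, with NaCl, CaCl2, MgCl2 and KCl, and non-specific binding was defined with 10^−6 mol/l Butaclamol. Bound radioactivity was collected by filtration, counted by scintillation, and competition curves calculated as percent specific binding.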

[2] = molecular target: T2, NET (norepinephrine transporter) (Rattus norvegicus, UniProt Q63380); experiment: In vitro determination of NET reuptake inhibition ([3H]Nixosetine binding, rat brain cortex); conditions: rat brain cortex, read-out: NET pIC50 (converted)
T2 construct: Cortex from rat brain was collected and homogenised; from tissue; host or cells: rat brain cortex
Procedure, shortened: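 Rat cortex homogenised in Tris 50 mM, NaCl 120 mM, KCl 5 mM, pH 7.4 was used for competition binding against [3H]nisoxetine. Bound radioligand was collected by filtration on GF/B filters and counted by scintillation. Percentage specific binding and competition curves were derived.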

[3] = molecular target: T3, human cloned 5-HT2C receptor, expressed in CHO cells (Homo sapiens, UniProt P28335); experiment: In vitro binding affinity for 5-HT2C receptor ([3H]mesulergine radioligand binding); conditions: human cloned 5-HT2C receptor, read-out: 5-HT2C pIC50 (converted)
T3 construct: expressed in transfected cells; host or cells: CHO cells
T3 sequence (P28335 33-458): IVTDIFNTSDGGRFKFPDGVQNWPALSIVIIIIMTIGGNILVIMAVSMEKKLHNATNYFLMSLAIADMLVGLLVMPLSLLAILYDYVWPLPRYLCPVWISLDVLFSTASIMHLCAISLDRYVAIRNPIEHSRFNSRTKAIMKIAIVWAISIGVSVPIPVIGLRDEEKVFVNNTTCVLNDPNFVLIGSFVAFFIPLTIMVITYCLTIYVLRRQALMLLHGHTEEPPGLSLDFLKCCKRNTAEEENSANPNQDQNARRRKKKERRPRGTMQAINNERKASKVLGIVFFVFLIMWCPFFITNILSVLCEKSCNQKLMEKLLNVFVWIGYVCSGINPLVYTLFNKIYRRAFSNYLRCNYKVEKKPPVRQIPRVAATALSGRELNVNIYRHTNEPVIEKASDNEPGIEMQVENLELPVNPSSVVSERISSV
Procedure, shortened: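 Competition radioligand binding: varying test-compound concentrations incubated with receptor preparation and radioligand to binding equilibrium. Bound radioactivity separated from free and counted; affinity inferred from concentration-dependent inhibition of radioligand binding.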

[4] = molecular target: T4, human cloned 5-HT2A receptor, expressed in L929 cells (Homo sapiens, UniProt P28223); experiment: In vitro binding affinity for 5-HT2A receptor ([125I]R91150 radioligand binding); conditions: human cloned 5-HT2A receptor in L929 cells, [125I]R91150; read-out: 5-HT2A pIC50 (converted)
T4 construct: expressed in transfected cells; host or cells: L929 cells
Procedure, shortened: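 Competition radioligand binding to human cloned 5-HT2A receptor expressed in L929 cells, using [125I]R91150 with test compound at various concentrations. At equilibrium, receptor-bound radioactivity was separated from free and counted. Affinity reflects inhibition of radioligand binding.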

T2 sequence (Q63380 1-617): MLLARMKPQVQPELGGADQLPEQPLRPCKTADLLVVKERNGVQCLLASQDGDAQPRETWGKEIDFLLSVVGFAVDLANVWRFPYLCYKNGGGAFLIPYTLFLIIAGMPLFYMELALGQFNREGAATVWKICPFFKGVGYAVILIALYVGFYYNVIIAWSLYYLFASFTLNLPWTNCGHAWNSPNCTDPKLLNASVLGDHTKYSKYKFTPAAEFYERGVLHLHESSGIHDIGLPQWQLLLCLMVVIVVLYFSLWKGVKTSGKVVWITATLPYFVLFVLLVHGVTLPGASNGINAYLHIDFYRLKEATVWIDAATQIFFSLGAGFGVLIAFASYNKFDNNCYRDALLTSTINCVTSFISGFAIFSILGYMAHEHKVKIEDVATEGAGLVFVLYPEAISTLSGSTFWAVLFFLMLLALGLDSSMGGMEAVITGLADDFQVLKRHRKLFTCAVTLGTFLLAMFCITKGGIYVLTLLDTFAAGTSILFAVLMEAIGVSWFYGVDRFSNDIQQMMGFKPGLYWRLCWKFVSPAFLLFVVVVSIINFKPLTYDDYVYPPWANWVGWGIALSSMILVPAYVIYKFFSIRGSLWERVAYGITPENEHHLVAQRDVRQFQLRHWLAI
T4 sequence (P28223 whole entry): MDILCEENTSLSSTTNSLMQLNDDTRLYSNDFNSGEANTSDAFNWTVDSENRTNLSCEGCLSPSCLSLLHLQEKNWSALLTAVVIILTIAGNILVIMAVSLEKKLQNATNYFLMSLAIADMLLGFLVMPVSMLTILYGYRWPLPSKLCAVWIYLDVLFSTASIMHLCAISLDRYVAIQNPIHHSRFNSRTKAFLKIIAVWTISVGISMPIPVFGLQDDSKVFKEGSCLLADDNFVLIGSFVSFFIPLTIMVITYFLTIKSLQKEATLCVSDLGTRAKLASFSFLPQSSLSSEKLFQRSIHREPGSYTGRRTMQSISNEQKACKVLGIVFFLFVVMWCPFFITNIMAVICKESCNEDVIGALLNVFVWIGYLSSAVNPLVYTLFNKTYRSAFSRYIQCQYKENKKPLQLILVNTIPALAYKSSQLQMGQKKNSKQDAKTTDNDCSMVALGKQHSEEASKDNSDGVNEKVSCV
T1 sequence (P14416 whole entry): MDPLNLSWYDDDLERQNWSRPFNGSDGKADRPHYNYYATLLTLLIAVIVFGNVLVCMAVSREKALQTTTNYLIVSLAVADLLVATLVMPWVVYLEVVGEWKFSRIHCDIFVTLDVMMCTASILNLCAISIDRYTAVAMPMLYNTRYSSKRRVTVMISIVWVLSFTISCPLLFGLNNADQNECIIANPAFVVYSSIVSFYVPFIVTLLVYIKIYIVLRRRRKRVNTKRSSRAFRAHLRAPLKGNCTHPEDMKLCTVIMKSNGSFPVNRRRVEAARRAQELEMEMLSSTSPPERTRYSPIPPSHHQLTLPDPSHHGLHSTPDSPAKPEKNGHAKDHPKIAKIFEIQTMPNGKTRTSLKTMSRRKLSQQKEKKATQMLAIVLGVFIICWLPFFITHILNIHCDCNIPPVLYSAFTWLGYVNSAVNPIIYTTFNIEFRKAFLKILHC

Row | Compound | IC50 [1] [nM] | IC50 [2] [nM] | IC50 [3] [nM] | IC50 [4] [nM]
1 | CCCCNC(=O)N1CCN(CC2CC3c4ccccc4Cc4ccc(F)cc4C3O2)CC1 (centres unmarked) [Compound 89] | 38.9 | > 10000 | 6.61 | 2.82
2 | CCC(C)(C)NC(=O)N1CCN(CC2CC3c4ccccc4Cc4ccc(F)cc4C3O2)CC1 (centres unmarked) [Compound 90] | 30.9 | 4470 | 20 | 1.62
3 | COC(CNC(=O)N1CCN(CC2CC3c4ccccc4Cc4ccc(F)cc4C3O2)CC1)OC (centres unmarked) [Compound 91] | 37.2 | 4070 | 14.8 | 1.15
4 | CCOC(=O)CNC(=O)N1CCN(CC2CC3c4ccccc4Cc4ccc(F)cc4C3O2)CC1 (centres unmarked) [Compound 92] | 43.7 | > 10000 | 15.5 | 2.57
5 | O=C(NCCCc1ccccc1)N1CCN(CC2CC3c4ccccc4Cc4ccc(F)cc4C3O2)CC1 (centres unmarked) [Compound 93] | 11.7 | 4170 | 5.01 | 2.57
6 | O=C(NC1CC1)N1CCN(CC2CC3c4ccccc4Cc4ccc(F)cc4C3O2)CC1 (stereo not drawn) [Compound 94, [2R-(2α, 3aα, 12bβ)]4-(11-fluoro-3,3a,8,12b-tetrahydro-2H-1-oxa-dibenzo[e,h]-azulen-2-ylmethyl)-piperazine-1-carboxylic acid cyclopropylamide.oxalate (1:1)] | 35.5 | 10700 | 2.19 | 0.389
7 | O=C(NC1CCCCC1)N1CCN(CC2CC3c4ccccc4Cc4ccc(F)cc4C3O2)CC1 (centres unmarked) [Compound 95] | 69.2 | 9550 | 7.59 | 1.74
8 | COc1ccc(CNC(=O)N2CCN(CC3CC4c5ccccc5Cc5ccc(F)cc5C4O3)CC2)c(OC)c1 (centres unmarked) [Compound 96] | 8.91 | > 10000 | 6.76 | 16.2
9 | O=C(NC1CCCCCCC1)N1CCN(C[C@H]2C[C@@H]3c4ccccc4Cc4ccc(F)cc4[C@@H]3O2)CC1 [Compound 98] | 42.7 | 9550 | 19.5 | 3.39
10 | O=C(NCc1ccc(F)cc1)N1CCN(CC2CC3c4ccccc4Cc4ccc(F)cc4C3O2)CC1 (centres unmarked) [Compound 99] | 11.5 | > 10000 | 8.13 | 3.16
11 | O=C(NCc1cccc(C(F)(F)F)c1)N1CCN(CC2CC3c4ccccc4Cc4ccc(F)cc4C3O2)CC1 (centres unmarked) [Compound 101] | 17.4 | 8910 | 12 | 5.75
12 | CS(=O)(=O)N1CCN(CC2CC3c4ccccc4Cc4ccc(F)cc4C3O2)CC1 (centres unmarked) [Compound 102] | 10.7 | > 10000 | 12.6 | 4.68
13 | CCS(=O)(=O)N1CCN(CC2CC3c4ccccc4Cc4ccc(F)cc4C3O2)CC1 (centres unmarked) [Compound 103] | 19.5 | > 10000 | 50.1 | 7.76
14 | C=CS(=O)(=O)N1CCN(CC2CC3c4ccccc4Cc4ccc(F)cc4C3O2)CC1 (centres unmarked) [Compound 104] | 30.9 | > 10000 | 28.2 | 8.32
15 | O=S(=O)(Cc1ccccc1)N1CCN(CC2CC3c4ccccc4Cc4ccc(F)cc4C3O2)CC1 (centres unmarked) [Compound 105] | 4.07 | > 10000 | 30.9 | 4.68
16 | O=S(=O)(c1ccccc1)N1CCN(CC2CC3c4ccccc4Cc4ccc(F)cc4C3O2)CC1 (centres unmarked) [Compound 106] | 44.7 | 9550 | 61.7 | 16.6
17 | Cc1ccc(S(=O)(=O)N2CCN(CC3CC4c5ccccc5Cc5ccc(F)cc5C4O3)CC2)cc1 (centres unmarked) [Compound 107] | 81.3 | > 10000 | 331 | 83.2
18 | CCCCNC(=S)N1CCN(C[C@H]2C[C@@H]3c4ccccc4Cc4ccc(F)cc4[C@@H]3O2)CC1 [Compound 108] | 29.5 | 3240 | 16.2 | 4.57
19 | CC(C)(C)NC(=S)N1CCN(CC2CC3c4ccccc4Cc4ccc(F)cc4C3O2)CC1 (centres unmarked) [Compound 109] | 132 | 263 | 38.9 | 14.5

Row | Compound | IC50 [1] [nM] | IC50 [2] [nM] | IC50 [3] [nM] | IC50 [4] [nM]
20 | CCOC(=O)CNC(=S)N1CCN(CC2CC3c4ccccc4Cc4ccc(F)cc4C3O2)CC1 (centres unmarked) [Compound 110] | 36.3 | 5750 | 47.9 | 6.17
21 | O=C(NC(=S)N1CCN(CC2CC3c4ccccc4Cc4ccc(F)cc4C3O2)CC1)c1ccccc1 (centres unmarked) [Compound 111] | 27.5 | 3090 | 9.77 | 3.89
22 | COc1ccc(NC(=S)N2CCN(CC3CC4c5ccccc5Cc5ccc(F)cc5C4O3)CC2)cc1 (centres unmarked) [Compound 112] | 20.4 | 933 | 21.9 | 3.31
23 | Fc1ccc2c(c1)C1OC(CN3CCN(C(=S)NCc4ccccc4)CC3)CC1c1ccccc1C2 (centres unmarked) [Compound 113] | 50.1 | 2400 | 24 | 11
24 | Fc1ccc2c(c1)C1OC(CN3CCN(C(=S)NC4CCCCC4)CC3)CC1c1ccccc1C2 (centres unmarked) [Compound 114] | 45.7 | 1100 | 20.9 | 6.17
25 | Fc1ccc2c(c1)C1OC(CN3CCN(C(=S)Nc4ccccc4)CC3)CC1c1ccccc1C2 (centres unmarked) [Compound 115] | 112 | 490 | 22.4 | 7.41
26 | COc1ccc(N2CCN(CC3CC4c5ccccc5Cc5ccc(F)cc5C4O3)CC2)cc1 (centres unmarked) [Compound 116] | 37.2 | 7240 | 20 | 9.77
27 | Fc1ccc2c(c1)C1OC(CN3CCN(c4ccccn4)CC3)CC1c1ccccc1C2 (centres unmarked) [Compound 117] | 15.5 | 4570 | 2.51 | 1.48
28 | COc1cccc(N2CCN(CC3CC4c5ccccc5Cc5ccc(F)cc5C4O3)CC2)n1 (centres unmarked) [Compound 118] | 26.3 | 2820 | 7.59 | 4.9
29 | Fc1ccc2c(c1)[C@@H]1O[C@@H](CN3CCN(c4cccc(C(F)(F)F)n4)CC3)C[C@@H]1c1ccccc1C2 [Compound 119] | 158 | 4070 | 51.3 | 10.2
30 | Fc1ccc2c(c1)C1OC(CN3CCN(c4ccc(C(F)(F)F)cn4)CC3)CC1c1ccccc1C2 (centres unmarked) [Compound 120] | 363 | > 10000 | 87.1 | 35.5
31 | Fc1ccc2c(c1)C1OC(CN3CCN(c4ncccc4C(F)(F)F)CC3)CC1c1ccccc1C2 (centres unmarked) [Compound 121] | 77.6 | 3550 | 77.6 | 13.2
32 | Fc1ccc2c(c1)C1OC(CN3CCN(c4cnccn4)CC3)CC1c1ccccc1C2 (centres unmarked) [Compound 123] | 40.7 | 2820 | 7.24 | 2.75
33 | CSc1nccc(N2CCN(CC3CC4c5ccccc5Cc5ccc(F)cc5C4O3)CC2)n1 (centres unmarked) [Compound 124] | 47.9 | 2290 | 30.9 | 8.91
34 | Fc1ccc2c(c1)C1OC(CN3CCN(c4nc5ccccc5s4)CC3)CC1c1ccccc1C2 (centres unmarked) [Compound 125] | 257 | > 10000 | 77.6 | 17.4
35 | Fc1ccc2c(c1)C1OC(CN3CCN(c4nc5ccccc5o4)CC3)CC1c1ccccc1C2 (centres unmarked) [Compound 126] | 214 | 9770 | 79.4 | 8.91
36 | Fc1ccc2c(c1)C1OC(CN3CCN(c4nc5ccccc5[nH]4)CC3)CC1c1ccccc1C2 (centres unmarked) [Compound 127] | 22.4 | 3800 | 4.17 | 0.251
37 | OCCC1CN(C[C@H]2C[C@@H]3c4ccccc4Cc4ccc(F)cc4[C@@H]3O2)CCO1 (some centres unmarked) [Compound 129] | 29.5 | 417 | 7.59 | < 10
38 | COCCC1CN(C[C@H]2C[C@@H]3c4ccccc4Cc4ccc(F)cc4[C@@H]3O2)CCO1 (some centres unmarked) [Compound 130] | 21.9 | 3550 | 5.37 | < 10
